The results in this text go back to publication PMC7359024, “Synthesis, Structure–Activity Relationship, and Mechanistic Studies of Aminoquinazolinones Displaying Antimycobacterial Activity” (ACS Infectious Diseases, 2020).

As usually defined, the MIC90 is an inhibitory concentration at the 90% level, which refers to growth in some studies and to a panel of isolates in others. What is called pIC50 is the negative decadic logarithm of the IC50, by convention in mol/L. Read a high pIC50 as a small IC50. The term solubility denotes the dissolved amount per volume that the medium holds. Usually Vd stands for the apparent volume that relates the amount in the body to the concentration in plasma or blood. A low value points to little distribution into tissue. A word on the Tmax: it is the time at which the peak concentration occurs. As usually defined, the Cmax is the highest concentration seen after dosing. Usually bioavailability stands for the share of a dose that reaches the circulation, judged against a reference dose that is usually intravenous.

pIC50: −log10 of the molar value. In brackets after ≈: the same amount, converted by molar mass. Where two headings read alike, the source gives them in different places. Where only a bound is given, the exact number is not on record here.

Series [1] relates to H37Rv Mtb strain. The series can be described thus: MIC90 in different media, H37Rv strain. Format: cell-based, Mycobacterium tuberculosis.
Series [2] relates to Mtb Erdman-Lux.
In series [3] the test system is Mtb H37Rv strain. In words: MIC90 determination in GASTE-Fe media (broth microdilution). The format is cell-based, Mycobacterium tuberculosis. To be noted: read-out: MIC90 GASTE-Fe. On the technique in general: In broth dilution the organism is exposed to a series of concentrations in liquid medium.
The nature of series [4]: in vitro. To be noted: Chinese hamster.
Series [5] is described as follows: physchem. The format is physicochemical. To be noted: 25 °C, pH 7.4, aqueous buffer, kinetic solubility, pH 7.4, HPLC method. As for the experimental part:
The kinetic solubility assay was performed using a miniaturised shake flask method. 10 mM stock solutions of each of the test compounds were used to prepare calibration standards (10-220μM) in DMSO. The same 10mM stock solutions were accurately dispensed in duplicate into 96-well plates and the DMSO dried down (MiVac GeneVac, 90 min, 37 °C). Thereafter, the samples were reconstituted (200 µM) in phosphate buffered saline (pH 7.4) and shaken (20 hours, 25 °C). The solutions were filtered and analysed by means of HPLC -DAD (Agilent 1200 Rapid Resolution HPLC with a diode array detector). […]

Series [6] is classed as in vitro ADME. To be noted: for Metabolic Stability H (% Rem.): human liver microsomes; for Metabolic Stability M (% Rem.): mouse liver microsomes; for Metabolic Stability R (% Rem.): rat liver microsomes. As for the experimental part:
3.2. Microsomal stability
The metabolic stability assay was performed in duplicate in a 96-well micro titre plate. The test compounds (0.1 μM) were incubated individually in mouse, rat and pooled human liver microsomes ((final protein concentration of 0.4 mg/mL; XenoTech, Lenexa, KS ), suspended in 0.1M phosphate buffer (pH 7.4) at 37 °C for predetermined time points, in the presence and absence of the cofactor NADPH (1 mM). Reactions were quenched by adding ice cold acetonitrile containing internal standard (carbamazepine, 0.0236 µg/mL). T he samples were centrifuged and test compound in the supernatant were analysed by means of LC -MS/MS (Agilent Rapid Resolution HPLC, AB SCIEX 4500 MS ). The relative loss of parent compound over time was monitored and plots (concentration vs. time) were prepared per compound to determine the first order rate constant for compound depletion. This was in turn used to calculate half-life, in vitro intrinsic clearance and in vivo hepatic extraction ratio. Metabolite searches were not conducted during the metabolic stability assay. 5
(In general: Liver microsomes are a subcellular fraction often used to study metabolism.)

The nature of series [7]: in vivo. To be noted: for Vd / clearance / half-life / Tmax / Cmax: C57/BL6, in vivo; for clearance: read-out: CLtotal; for half-life: read-out: apparent t1/2 (converted); for Cmax: whole blood; for bioavailability: oral 20 mg/kg vs iv 5 mg/kg. Further details: species or system C57/BL6 mice. How it is done: In vivo PK studies were performed on compound 1 (sulfone) and compound 2 (sulfoxide) (Table 3). All studies and procedures were conducted with prior approval of the animal ethics committee of the University of Cape Town (approval numbers 013/028 and 014/028) in accordance with the South African National Standard (SANS 10386:008) for the Care and Use of Animals for Scientific Purposes and guidelines from the Department of Health. […]
the South African National Standard (SANS 10386:008) for the Care and Use of Animals for Scientific Purposes,6 and guidelines from the Department of Health.7
The pharmacokinetic parameters of the compounds were determined by dosing the compound to C57/BL6 mice through oral (n = 3 mice) and intravenous (n = 3 mice) administration. For oral administration, the compounds were formulated in 0.5% hydroxypropylmethyl cellulose (HPMC) in Phosphate buffered saline pH 7.4. The intravenous doses were administered in dimethylacetamide-polyethylene glycol 400-polypropylene glycol (DMA-PEG400-PPG) (10:30:60) Blood samples were collected via tail bleeding at predetermined time points and stored at -80°C until liquid chromatography-tandem mass spectrometry (LC-MS/MS) analysis.
The whole-blood concentrations of the compounds were determined using a quantitative LC- […]
method, using ice -cold acetonitrile.
After centrifugation, the supernatant was transferred to 96 -well plates for analysis. LC -MS/MS was carried out on an AB Sciex 400 0 QTrap coupled to an Agilent 1200 high -performance liquid chromatograph (HPLC). Separation was achieved on a Kinetex PFP column column, using 0.1% formic acid in water as the aqueous mobile phase and 0.1% formic acid in acetonitrile as the organic mobile phase. The analytical limit of quantitation (LOQ) was 1 ng/ml. LC-MS/MS method accuracy and precision were 15% (nom) for the standards and […]
Concentration-versus-time data were used to derive the PK parameters using noncompartmental analys is on PK Solutions 2.0 (Summit Research Services, Montrose, CO,

The subject of series [8] is Erdman Mtb strain. In words: MIC90 in different media, Erdman strain. The format is cell-based. The following applies: Mycobacterium tuberculosis.
Series [9] deals with recA expression. The format is cell-based. To be noted: indicator of genotoxic compounds.
Series [10] relates to cytochrome-bd oxidase knockout mutant strain (Δcyd). The format is cell-based.
In series [11] the test system is iniB expression. The format is cell-based. To be noted: detects compounds targeting cell-wall biosynthesis.
Where [12] appears, read: Mtb H37Rv, replicating conditions, GASTE-Fe media, read 14 days after incubation.
Where [13] appears, read: Mycobacterium tuberculosis, H37RV, 336 h, Mtb H37Rv, replicating conditions, GASTE-Fe media, read 14 days after incubation.
[14] abbreviates: C57/BL6, mouse, in vivo, read-out: bioavailability.
[15] abbreviates: Erdman, 7H12 + casitone + palmitic acid + BSA + catalase + Tween 80 (glycerol-free).
[16] abbreviates: Mycobacterium tuberculosis, H37RV; 7H12 + casitone + palmitic acid + BSA + catalase + Tween 80 (glycerol-free); read-out: MIC90.
The mark [17] stands for this setting: Mycobacterium tuberculosis, H37RV; read-out: MIC90.
Where [18] appears, read: 100 mg/kg oral once per day, 12 days, three days after last dose, untreated 6.51.

Regarding `CO[C@H]1/C=C/O[C@@]2(C)Oc3c(C)c(O)c4c(O)c(c(/C=N/N5CCN(C)CC5)c(O)c4c3C2=O)NC(=O)/C(C)=C\C=C\[C@H](C)[C@H](O)[C@@H](C)[C@@H](O)[C@@H](C)[C@H](OC(C)=O)[C@@H]1C` [Rifampicin, reference compound], the MIC90 in [1] was <0.008 µg/mL; in series [3] (Mycobacterium tuberculosis, H37RV, 336 h), 0.0039 µM (≈ 0.00321 µg/mL). For the same compound, in [1] (Mycobacterium tuberculosis, H37RV, read-out: MIC90), the MIC was found to be 0.016 µg/mL (≈ 0.0194 µM). In addition, the mean lung burdens in [2] (mouse, in vivo) is given as 5.72 log10 CFU. The “reduction of lung burdens” value in series [2] (mouse, in vivo) was found to be 0.8 log.
In the case of `CS(=O)(=O)c1cccc(-c2ccc3nc(N)n(-c4ccc(C(F)(F)F)cc4)c(=O)c3c2)c1` [compound 1, 2-Amino-6-(3-(methylsulfonyl)phenyl)-3-(4-(trifluoromethyl)phenyl)quinazolin-4(3H)-one], in [4], the pIC50 was < 4.00. Moreover, the solubility in series [5] was < 5 µM. In addition, in series [6], the “Metabolic Stability H (% Rem.)” value stood at 97 % Rem, the “Metabolic Stability M (% Rem.)” value worked out at 92 % Rem and the “Metabolic Stability R (% Rem.)” value came to 100 % Rem. Moreover, the MIC90 in series [3] (setting [12]) is <0.244 µM. Besides, the MIC90 in [3] (setting [13]) was < 0.244 µM. Further, the “AUC0–∞” value in series [7] (1 as metabolite of 2, mouse, oral 20 mg/kg of compound 2) is on record as 18430 min·μmol·L^–1. For the same compound, in series [7] (mouse, iv 5 mg/kg), the Vd stood at 0.81 L/kg, the clearance was determined as 1.3 mL/min/kg, the half-life was 7.3 h and the “AUC0–∞” value stood at 8589 min·μmol·L^–1. In series [7] (mouse, oral 20 mg/kg), the Tmax was 3 h, the Cmax turned out to be 5.98 µM and the “AUC0–∞” value came out at 7249 min·μmol·L^–1. The bioavailability in series [7] (setting [14]) amounted to 18%. This compound also showed a bioavailability in [7] (mouse) of 18.4%.
`C[S+]([O-])c1cccc(-c2ccc3nc(N)n(-c4ccc(C(F)(F)F)cc4)c(=O)c3c2)c1` (stereo not shown) [compound 2, 2-Amino-6-(3-(methylsulfinyl)phenyl)-3-(4-(trifluoromethyl)phenyl)quinazolin-4(3H)-one]: the MIC in [8] turned out to be 1 µg/mL (≈ 2.26 µM). The MIC in series [8] (setting [15]) is > 16 µg/mL. The “signal in PrecA-LUX reporter assay” value in series [9] is “did not show a positive signal”. In addition, the pIC50 in series [4] was < 4.00. In [5], this compound returned a solubility of 80 µM (≈ 35.5 µg/mL). Moreover, the “Metabolic Stability H (% Rem.)” value in series [6] is 88/-/- % Rem. The MIC in [1] (setting [16]) was > 16 µg/mL. The MIC in series [1] (setting [17]) was determined as 0.5 µg/mL (≈ 1.13 µM). In [2] (setting [18]), this compound registered a mean lung burdens of 7.84 log10 CFU. Further, the mean lung burdens in series [2] (200 mg/kg oral once per day, 12 days, three days after last dose, untreated 6.51) is given as 7.75 log10 CFU. The tolerability result in series [2] (100 and 200 mg/kg oral once per day, 12 consecutive days) is given as “no evidence of compound tolerability issues”. The “efficacy in the BALB/c acute infection model” value in series [2] (100 and 200 mg/kg oral, 12 days) was “lack efficacy”. Further, the “Δcyd GASTE-Fe MIC90” value in [10] was found to be 2.5 µM. The “signal in PiniB-LUX reporter assay” value in [11] was “did not show a positive signal”. The MIC90 in series [3] (setting [13]) worked out at 0.64 µM (≈ 0.284 µg/mL). Moreover, in series [7] (mouse, iv 5 mg/kg), the Vd stood at 11.1 L/kg, the clearance turned out to be 21.8 mL/min/kg, the half-life was 6.2 h and the “AUC0–∞” value was determined as 523 min·μmol·L^–1. Besides, in series [7] (mouse, oral 20 mg/kg), the Tmax amounted to 0.5 h, the peak level (Cmax) was 3.54 µM and the “AUC0–∞” value turned out to be 2152 min·μmol·L^–1. The bioavailability in series [7] (setting [14]) turned out to be 93%.
Consider `Nc1nc2cc(-c3cccc(C(F)(F)F)c3)ccc2c(=O)n1-c1ccc(C(F)(F)F)cc1` [compound 32], for which the negative-log IC50 (pIC50) in [4] is < 4.30. Further, in series [5], the solubility was < 5 µM. In addition, in series [6], the “Metabolic Stability H (% Rem.)” value came out at 95 % Rem, the “Metabolic Stability M (% Rem.)” value is on record as 82 % Rem and the “Metabolic Stability R (% Rem.)” value was 89 % Rem. Besides, the MIC90 in [3] (setting [13]) was 0.8 µM (≈ 0.359 µg/mL).
Take `CNc1nc2ccc(-c3cccc([S+](C)[O-])c3)cc2c(=O)n1-c1ccc(C(F)(F)F)cc1` (stereo not shown) [compound 40, 2-(Methylamino)-6-(3-(methylsulfinyl)phenyl)-3-(4-(trifluoromethyl)phenyl)quinazolin-4(3H)-one]: in [4], the negative logarithm of the IC50 (pIC50) is < 4.30. The concentration in solution in series [5] (solubility) was 64 µM (≈ 29.3 µg/mL). Also, in series [6], the “Metabolic Stability H (% Rem.)” value worked out at 89 % Rem, the “Metabolic Stability M (% Rem.)” value is reported as 87 % Rem and the “Metabolic Stability R (% Rem.)” value is on record as 90 % Rem. Besides, the MIC90 in [3] (setting [13]) came to 1.4 µM (≈ 0.64 µg/mL).
As to `CNc1nc2ccc(-c3cccc(S(C)(=O)=O)c3)cc2c(=O)n1-c1ccc(C(F)(F)F)cc1` [compound 41, 2-(Methylamino)-6-(3-(methylsulfonyl)phenyl)-3-(4-(trifluoromethyl)phenyl)quinazolin-4(3H)-one], the pIC50 in series [4] was < 4.30. For the same compound, in [5], the solubility was < 5 µM. In series [6], the “Metabolic Stability H (% Rem.)” value was determined as 98 % Rem, the “Metabolic Stability M (% Rem.)” value came to 100 % Rem and the “Metabolic Stability R (% Rem.)” value is 100 % Rem. Moreover, in series [3] (setting [12]), the MIC90 is >125 µM. Besides, the MIC90 in series [3] (setting [13]) was > 125 µM.
Turning to `CC[C@@H](CO)NCCN[C@@H](CC)CO` [ethambutol, reference compound], in series [2] (setting [18]), the mean lung burdens is reported as 4.15 log10 CFU. In addition, in series [2] (100 mg/kg, relative to untreated), the “reduction of lung burdens” value is 2.4 log.
As for `NNC(=O)c1ccncc1` [isoniazid, reference compound], the MIC in [8] turned out to be 0.016 µg/mL (≈ 0.117 µM); in series [8] (setting [15]) it was 0.016 µg/mL; in series [1] (setting [16]) it was 0.016 µg/mL; in series [1] (setting [17]) it was 0.016 µg/mL (≈ 0.117 µM).
